Source: US20250011368A1, “DLL3 TARGETING PEPTIDES AND CONSTRUCTS THEREOF” (MARIANA ONCOLOGY INC., priority 2023, published 2025)
Numbered stars: 1 amine (or outer) side, 2 acyl side, 3 side chain; on linkers, the order of the positions; unused ones are H or OH. Bridge positions count the residues as written; N and C are the ends. Square brackets hold non-standard residues; d marks the D form. Peptide text beside a SMILES is read from it. * marks the point of attachment. ξ: configuration not given here. DOTA = O=C(O)CN1CCN(CC(=O)O)CCN(CC(=O)*)CCN(CC(=O)O)CC1; X3 = CC[C@H](c1c[nH]c2ccccc12)[C@H](N[*:1])C(=O)[*:2]; Trp(5-F) = N[C@@H](Cc1c[nH]c2ccc(F)cc12)C(=O)O; Trp(7-aza) = N[C@@H](Cc1c[nH]c2ncccc12)C(=O)O; Pro(trans-4-F) = O=C(O)[C@@H]1C[C@@H](F)CN1; Lys(Me3) = C[N+](C)(C)CCCC[C@H](N)C(=O)O; PEG8 = NCCOCCOCCOCCOCCOCCOCCOCCOCCC(=O)O; γGlu = O=C(O)[C@H](CCC(=O)[*:2])N[*:1]; 1Nal = N[C@@H](Cc1cccc2ccccc12)C(=O)O; 2Nal = N[C@@H](Cc1ccc2ccccc2c1)C(=O)O; Gly(4-THP) = N[C@H](C(=O)O)C1CCOCC1; Nva(3-Et) = CCC(CC)[C@H](N)C(=O)O; Aze = O=C(O)[C@@H]1CCN1; Abu = CC[C@H](N)C(=O)O; ξD = NC(CC(=O)O)C(=O)O

Target: T1, human DLL3 (Homo sapiens, UniProt Q9NYJ7)
T1 sequence (Q9NYJ7 27-618): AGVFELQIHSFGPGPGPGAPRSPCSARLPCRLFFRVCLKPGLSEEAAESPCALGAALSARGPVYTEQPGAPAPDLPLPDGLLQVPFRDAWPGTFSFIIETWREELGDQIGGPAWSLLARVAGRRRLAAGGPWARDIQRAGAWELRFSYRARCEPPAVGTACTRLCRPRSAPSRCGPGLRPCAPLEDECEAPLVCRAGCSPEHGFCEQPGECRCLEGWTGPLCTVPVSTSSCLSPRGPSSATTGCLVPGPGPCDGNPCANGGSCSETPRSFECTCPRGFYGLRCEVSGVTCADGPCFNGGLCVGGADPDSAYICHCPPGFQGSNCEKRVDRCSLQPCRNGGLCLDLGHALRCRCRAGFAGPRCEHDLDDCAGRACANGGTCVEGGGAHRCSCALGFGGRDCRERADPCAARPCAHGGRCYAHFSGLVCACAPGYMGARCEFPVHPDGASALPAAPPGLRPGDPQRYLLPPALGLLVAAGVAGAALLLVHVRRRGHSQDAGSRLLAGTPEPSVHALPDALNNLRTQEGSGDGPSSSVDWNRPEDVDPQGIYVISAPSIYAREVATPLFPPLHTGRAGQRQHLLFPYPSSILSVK
Assay: Affinity determination by Surface Plasmon Resonance (SPR)
Type: binding
Details: 25° C., biotinylated human DLL3 immobilized on streptavidin sensor chip, 1:1 binding model; read-out: SPR KD
Method in brief: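 Biotinylated human DLL3 was captured on a streptavidin chip with a reference surface. Compounds at several concentrations were injected at 100 μL/minute in phosphate buffer (137 mM NaCl, 2.7 mM KCl, 0.05% P20, 2% DMSO). Affinity and kinetics came from 1:1 model fits of the sensorgrams.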

| SMILES | Kd |
| --- | --- |
| CC[C@H](C)[C@H](NC(=O)[C@@H](NC(=O)[C@H](Cc1c[nH]c2ccccc12)NC(C)=O)[C@@H](C)O)C(=O)N[C@H]1CSSC[C@@H](C(=O)N[C@@H](Cc2c[nH]c3ccccc23)C(=O)N2CCC[C@H]2C(=O)NCC(=O)N[C@@H](CO)C(=O)NCC(=O)N[C@@H](CO)C(=O)NCC(=O)N[C@@H](CO)C(=O)N[C@H](CCCCNC(=O)CN2CCN(CC(=O)O)CCN(CC(=O)O)CCN(CC(=O)O)CC2)C(N)=O)NC(=O)C(CC(=O)O)NC(=O)[C@H](Cc2cnc[nH]2)NC(=O)[C@H](Cc2ccc3ccccc3c2)NC(=O)[C@H](CC(N)=O)NC(=O)[C@H](CC(N)=O)NC1=O (stereo partly drawn) [compound 232, Ac-W-T-I-C(3)-N-N-(2Nal)-H-D-C(3)-W-P-G-S-G-S-G-S-[D-Lys(DOTA)]-NH2] (Ac-WTICNN[2Nal]H[ξD]CWPGSGSGS[dK](DOTA)-NH2; disulfide 4-10) | < 1 nM |
| CC[C@H](NC(C)=O)C(=O)N[C@H](C(=O)N[C@H](C(=O)N[C@H]1CSSC[C@@H](C(=O)N[C@@H](Cc2c[nH]c3ccccc23)C(=O)N2CCC[C@H]2C(=O)N[C@@H](CCC(=O)N[C@@H](CCC(=O)N[C@@H](CCC(=O)N[C@H](CCCCNC(=O)CN2CCN(CC(=O)O)CCN(CC(=O)O)CCN(CC(=O)O)CC2)C(N)=O)C(=O)O)C(=O)O)C(=O)O)NC(=O)[C@H](CC(=O)O)NC(=O)[C@H](Cc2cnc[nH]2)NC(=O)[C@H](Cc2ccc3ccccc3c2)NC(=O)[C@H](CC(N)=O)NC(=O)[C@H](CC(N)=O)NC1=O)[C@H](CC)c1c[nH]c2ccccc12)[C@@H](C)O [compound 234, Ac-W-T-I-C(3)-N-N-(2Nal)-H-D-C(3)-W-P-gE-gE-gE-[D-Lys(DOTA)]-NH2] (Ac-[Abu]T[X3]CNN[2Nal]HDCWP[γGlu][γGlu][γGlu][dK](DOTA)-NH2; disulfide 4-10) | < 1 nM |
| CC[C@H](C)[C@H](NC(=O)[C@@H](NC(=O)[C@H](Cc1c[nH]c2ccccc12)NC(C)=O)[C@@H](C)O)C(=O)N[C@H]1CSSC[C@@H](C(=O)N[C@@H](Cc2c[nH]c3ccccc23)C(=O)N2CCC[C@H]2C(=O)N2CCC[C@@H]2C(=O)NCCOCCOCCOCCOCCOCCOCCOCCOCCC(=O)N[C@H](CCCCNC(=O)CN2CCN(CC(=O)O)CCN(CC(=O)O)CCN(CC(=O)O)CC2)C(N)=O)NC(=O)[C@H](CC(=O)O)NC(=O)[C@H](Cc2cnc[nH]2)NC(=O)[C@H](Cc2ccc3ccccc3c2)NC(=O)[C@H](CC(N)=O)NC(=O)[C@H](CC(N)=O)NC1=O [compound 235, Ac-W-T-I-C(3)-N-N-(2Nal)-H-D-C(3)-W-P-(D-Pro)-PEG8-[D-Lys(DOTA)]-NH2] (Ac-WTICNN[2Nal]HDCWP[dP][PEG8][dK](DOTA)-NH2; disulfide 4-10) | < 1 nM |

The next lines start with the values.

| Kd | SMILES |
| --- | --- |
| < 1 nM | CC[C@H](C)[C@H](NC(=O)[C@@H](NC(=O)[C@H](Cc1c[nH]c2ccccc12)NC(C)=O)[C@@H](C)O)C(=O)N[C@H]1CSSC[C@@H](C(=O)N[C@@H](Cc2c[nH]c3ccccc23)C(=O)N2CCC[C@H]2C(=O)N[C@@H](CCC(=O)N[C@H](CCCCNC(=O)CN2CCN(CC(=O)O)CCN(CC(=O)O)CCN(CC(=O)O)CC2)C(N)=O)C(=O)O)NC(=O)[C@H](CC(=O)O)NC(=O)[C@H](Cc2cnc[nH]2)NC(=O)[C@H](Cc2ccc3ccccc3c2)NC(=O)[C@H](CC(N)=O)NC(=O)[C@H](CC(N)=O)NC1=O [compound 233, Ac-W-T-I-C(3)-N-N-(2Nal)-H-D-C(3)-W-P-gE-[D-Lys(DOTA)]-NH2] (Ac-WTICNN[2Nal]HDCWP[γGlu][dK](DOTA)-NH2; disulfide 4-10) |
| 1 to 10 nM | CC[C@H](C)[C@H](NC(=O)[C@@H](NC(=O)[C@H](Cc1c[nH]c2ccccc12)NC(C)=O)[C@@H](C)O)C(=O)N[C@H]1CSSC[C@@H](C(=O)N[C@@H](Cc2c[nH]c3ccccc23)C(=O)N2CCC[C@H]2C(=O)N[C@H](CCCCNC(=O)CN2CCN(CC(=O)O)CCN(CC(=O)O)CCN(CC(=O)O)CC2)C(N)=O)NC(=O)[C@H](CC(=O)O)NC(=O)[C@H](CCCC[N+](C)(C)C)NC(=O)[C@H](Cc2ccc3ccccc3c2)NC(=O)[C@H](CC(N)=O)NC(=O)[C@H](CC(N)=O)NC1=O [compound 238, Ac-W-T-I-C(3)-N-N-(2Nal)-(K(Me)3)-D-C(3)-W-P-[D-Lys(DOTA)]-NH2] (Ac-WTICNN[2Nal][Lys(Me3)]DCWP[dK](DOTA)-NH2; disulfide 4-10) |
| 1 to 10 nM | CCC(CC)[C@H](NC(=O)[C@@H](NC(=O)[C@H](Cc1c[nH]c2ccc(F)cc12)NC(C)=O)[C@@H](C)O)C(=O)N[C@H]1CSSC[C@@H](C(=O)N[C@@H](Cc2c[nH]c3ncccc23)C(=O)N2CC[C@H]2C(=O)N[C@@H](CCCCNC(=O)CN2CCN(CC(=O)O)CCN(CC(=O)O)CCN(CC(=O)O)CC2)C(N)=O)NC(=O)[C@H](CC(=O)O)NC(=O)[C@H](Cc2c[nH]cn2)NC(=O)[C@H](Cc2cccc3ccccc23)NC(=O)[C@H](CC(N)=O)NC(=O)[C@H](CC(N)=O)NC1=O [compound 241, Ac-(5Fluoro-W)-T-(Env)-C(3)-N-N-(1Nal)-H-D-C(3)-(7Aza-W)-(Aze)-[D-Lys(DOTA)]-NH2] (Ac-[Trp(5-F)]T[Nva(3-Et)]CNN[1Nal]HDC[Trp(7-aza)][Aze]K(DOTA)-NH2; disulfide 4-10) |
| < 1 nM | CCC(CC)[C@H](NC(=O)[C@@H](NC(=O)[C@H](Cc1c[nH]c2ccc(F)cc12)NC(C)=O)[C@@H](C)O)C(=O)N[C@H]1CSSC[C@@H](C(=O)N[C@@H](Cc2c[nH]c3ncccc23)C(=O)N2C[C@H](F)C[C@H]2C(=O)N[C@@H](CCCCNC(=O)CN2CCN(CC(=O)O)CCN(CC(=O)O)CCN(CC(=O)O)CC2)C(N)=O)NC(=O)[C@H](CC(=O)O)NC(=O)[C@H](Cc2cnc[nH]2)NC(=O)[C@H](Cc2ccc3ccccc3c2)NC(=O)[C@H](CC(N)=O)NC(=O)[C@H](CC(N)=O)NC1=O [compound 242, Ac-(5Fluoro-W)-T-(Env)-C(3)-N-N-(2Nal)-H-D-C(3)-(7Aza-W)-(trans4Fluoro-P)-[D-Lys(DOTA)]-NH2] (Ac-[Trp(5-F)]T[Nva(3-Et)]CNN[2Nal]HDC[Trp(7-aza)][Pro(trans-4-F)]K(DOTA)-NH2; disulfide 4-10) |
| < 1 nM | CC(=O)N[C@@H](Cc1c[nH]c2ccc(F)cc12)C(=O)N[C@H](C(=O)N[C@H](C(=O)N[C@H]1CSSC[C@@H](C(=O)N[C@@H](Cc2c[nH]c3ncccc23)C(=O)N2C[C@H](F)C[C@H]2C(=O)N[C@@H](CCCCNC(=O)CN2CCN(CC(=O)O)CCN(CC(=O)O)CCN(CC(=O)O)CC2)C(N)=O)NC(=O)[C@H](CC(=O)O)NC(=O)[C@H](Cc2c[nH]cn2)NC(=O)[C@H](Cc2ccc3ccccc3c2)NC(=O)[C@H](CC(N)=O)NC(=O)[C@H](CC(N)=O)NC1=O)C1CCOCC1)[C@@H](C)O [compound 243, Ac-(5Fluoro-W)-T-(THPG)-C(3)-N-N-(2Nal)-H-D-C(3)-(7Aza-W)-(trans4Fluoro-P)-[D-Lys(DOTA)]-NH2] (Ac-[Trp(5-F)]T[Gly(4-THP)]CNN[2Nal]HDC[Trp(7-aza)][Pro(trans-4-F)]K(DOTA)-NH2; disulfide 4-10) |
